System: parasites (ring stage parasites, parasite growth)
Assay: Parasite LDH growth assay (Parasite Assay), antiparasite potency
Type: cell-based
Conditions: 72 hours growth, LDH readout
How it was run: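 Ring-stage culture was adjusted to 0.7% parasitemia and 2% haematocrit in bicarbonate-buffered RPMI-Hepes with heat-inactivated human serum and 0.5% albumax, then added to compound. Plates were incubated 72 h at 37 °C in gassed humidified boxes, frozen at −80 °C overnight and thawed, and growth was read by LDH assay.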

SMILES: CCC1(CC)CC(=O)N(C[C@@H]2C(C)[C@H]2C(=O)N[C@@H]2c3ccccc3OC(C)(C)[C@H]2O)C(=N)N1 (single isomer, unassigned) [Example 30A]
- EC50 (Table 3): 45 nM

SMILES: CCC1(C)CC(NC(=O)[C@@H]2C[C@H]2[C@@H](CCOC)N2C(=N)NC(C)(C)CC2=O)c2ccccc2O1 (some centres unmarked) [Example 75A]
- EC50 (72 h, Table 3): 8.2 nM

SMILES: COCC[C@H]([C@@H]1C[C@H]1C(=O)NC1CC(C)(C)Oc2ccc(OC(F)(F)F)cc21)N1C(=N)NC(C)(C)CC1=O (some centres unmarked) [Example 126A]
- EC50 (72 h, Table 3): 4.7 nM

SMILES: CCC1(CC)CC(=O)N(C(CC(C)OC)[C@@H]2C[C@H]2C(=O)N[C@@H]2CC(C)(C)Oc3ccccc32)C(=N)N1 (single isomer, unassigned) [Example 143C]
- EC50 (Table 4 (unit inferred)): 57.9 nM

SMILES: CC1(C)CC(=O)N([C@H](c2cccnc2)[C@@H]2C[C@H]2C(=O)NC2CC(C)(C)Oc3ccc(F)cc32)C(=N)N1 (single isomer, unassigned) [Example 98A]
- EC50 (Table 3): 0.9 nM

SMILES: CC1(C)CC(=O)N([C@H](c2cccc(C#N)c2)[C@@H]2C[C@H]2C(=O)N[C@H]2CC(C)(C)Oc3ccccc32)C(=N)N1 [Example 50]
- EC50 (72 h, Table 3): 3 nM

SMILES: COCC[C@H]([C@@H]1C[C@H]1C(=O)N[C@@H]1CC(C)(C)Oc2ccc(F)cc21)N1C(=N)NC(C)(C)CC1=O [Example 72A]
- EC50 (72 h, Table 3): 11 nM

SMILES: COCC[C@H]([C@@H]1C[C@H]1C(=O)N[C@@H]1CC(C)(C)Oc2cc(C)ccc21)N1C(=N)NC(C)(C)CC1=O [Example 83B]
- EC50 (72 h, Table 3): 26 nM

SMILES: CCC1(CC)CC(=O)N(CC2C(C(=O)N[C@H]3C[C@H](C(F)(F)F)Oc4ccccc43)C2(F)F)C(=N)N1 (single isomer, unassigned) [Example 17A]
- EC50 (Table 3): 47 nM

SMILES: COCC[C@H]([C@@H]1C[C@H]1C(=O)NC1CC(C)(COC)Oc2ccccc21)N1C(=N)NC(C)(C)CC1=O (single isomer, unassigned) [Example 82A]
- EC50 (Table 3): 24.4 nM

SMILES: COCC[C@H]([C@@H]1C[C@H]1C(=O)N[C@@H]1C[C@@H](C(F)(F)F)Oc2ccccc21)N1C(=N)NC(C)(C)CC1=O [Example 24C]
- EC50 (Table 3): 120 nM

SMILES: COCC[C@H]([C@@H]1C[C@H]1C(=O)N[C@H]1CC(C)(C)Oc2cc(C)c(C)cc21)N1C(=N)NC(C)(C)CC1=O [Example 138A]
- EC50 (72 h, Table 3): 7.4 nM

SMILES: CCC1(CC)CC(NC(=O)[C@@H]2C[C@H]2[C@@H](CCOC)N2C(=N)NC(C)(C)CC2=O)c2ccccc2O1 (some centres unmarked) [Example 92A]
- EC50 (72 h, Table 3): 7.6 nM

SMILES: CCC1(CC)CC(=O)N([C@H](c2cccnc2)[C@@H]2C[C@H]2C(=O)N[C@H]2CCOc3ccccc32)C(=N)N1 [Example 9]
- EC50 (72 h, Table 3): 6.9 nM

SMILES: CC(C)C1(C)CC(NC(=O)[C@@H]2C[C@H]2[C@@H](c2cccnc2)N2C(=N)NC(C)(C)CC2=O)c2ccccc2O1 (single isomer, unassigned) [Example 81B]
- EC50 (Table 3): 1 nM

SMILES: CCC1(CC)CC(=O)N([C@H](CCOC)[C@@H]2C[C@H]2C(=O)N[C@H]2CC(C)(C)Oc3ccc(Cl)cc32)C(=N)N1 [Example 146]
- EC50 (72 h, Table 4 (unit inferred)): 1.1 nM

SMILES: CCC1(CC)CC(=O)N(C[C@@H]2C[C@H]2C(=O)N[C@@H]2CC(C)(C)Oc3ccc(F)cc32)C(=N)N1 [Example 7B]
- EC50 (72 h, Table 3): 29 nM

SMILES: CCC1(CC)CC(=O)N([C@H](CCOC)[C@@H]2C[C@H]2C(=O)N[C@H]2c3ccccc3OC(C)(C)[C@@H]2O)C(=N)N1 [Example 144]
- EC50 (72 h, Table 4 (unit inferred)): 165 nM

SMILES: COCC[C@H]([C@@H]1C[C@H]1C(=O)N[C@@H]1CC(C)(C)Oc2cccc(Cl)c21)N1C(=N)NC(C)(C)CC1=O [Example 116B]
- EC50 (72 h, Table 3): 18 nM

SMILES: COCC[C@H]([C@@H]1C[C@H]1C(=O)NC1CC(C)(C)Oc2c(F)cccc21)N1C(=N)NC(C)(C)CC1=O (some centres unmarked) [Example 111B]
- EC50 (Table 3): 15 nM

SMILES: COCC[C@H]([C@@H]1C[C@H]1C(=O)N[C@H]1CC(C)(C)Oc2ccccc21)N1C(=N)N[C@](C)(C(C)C)CC1=O [Example 20]
- EC50 (72 h, Table 3): 5.3 nM

SMILES: COCC[C@H]([C@@H]1C[C@H]1C(=O)N[C@@H]1CC(C)(C)Oc2cc(OC(F)(F)F)ccc21)N1C(=N)NC(C)(C)CC1=O [Example 134A]
- EC50 (72 h, Table 3): 71 nM

SMILES: CCC1(CC)CC(=O)N([C@H](c2cccnc2)[C@@H]2C[C@H]2C(=O)N[C@@H]2c3ccccc3C[C@H]2O)C(=N)N1 [Example 10]
- EC50 (72 h, Table 3): 27 nM

SMILES: COCC[C@H]([C@@H]1C[C@H]1C(=O)NC1CC(C)(C)Oc2c(Cl)cccc21)N1C(=N)NC(C)(C)CC1=O (some centres unmarked) [Example 112A]
- EC50 (72 h, Table 3): 18 nM

SMILES: Cc1ccc2c(c1)[C@@H](NC(=O)[C@@H]1C[C@H]1CN1C(=N)NC(C)(C)CC1=O)CC(C)(C)O2 [Example 128]
- EC50 (72 h, Table 3): 280 nM

SMILES: CC1(C)CC(=O)N([C@@H](c2cncc(Cl)c2)[C@@H]2C[C@H]2C(=O)N[C@H]2CC(C)(C)Oc3ccccc32)C(=N)N1 [Example 58A]
- EC50 (72 h, Table 3): 210 nM

SMILES: CCC1(C)CC(NC(=O)[C@@H]2C[C@H]2[C@@H](CCOC)N2C(=N)NC(C)(C)CC2=O)c2ccccc2O1 (single isomer, unassigned) [Example 75B]
- EC50 (Table 3): 7.5 nM

SMILES: COCC[C@H]([C@@H]1C[C@H]1C(=O)NC1CC(C)(C)Oc2cc(F)ccc21)N1C(=N)NC(C)(C)CC1=O (some centres unmarked) [Example 76B]
- EC50 (Table 3): 15 nM

SMILES: COc1ccc([C@H]([C@@H]2C[C@H]2C(=O)N[C@H]2C[C@H](C(F)(F)F)Oc3ccccc32)N2C(=N)NC(C)(C)CC2=O)cn1 [Example 37]
- EC50 (72 h, Table 3): 1.2 nM

SMILES: CCC1(CC)CC(=O)N([C@H](CCOC)[C@@H]2C[C@H]2C(=O)NC2CC(C)(C)Oc3cc(Cl)ccc32)C(=N)N1 (single isomer, unassigned) [Example 147A]
- EC50 (Table 4 (unit inferred)): 2.8 nM

SMILES: CC[C@]1(C)CC(=O)N([C@H](c2cncc(F)c2)[C@@H]2C[C@H]2C(=O)N[C@@H]2c3ccccc3OCC2(C)C)C(=N)N1 [Example 102A]
- EC50 (72 h, Table 3): 0.8 nM

SMILES: CC1(C)CC(=O)N([C@H](c2cccnc2)[C@@H]2C[C@H]2C(=O)NC2CC(C)(C)Oc3c(Cl)cccc32)C(=N)N1 (some centres unmarked) [Example 121B]
- EC50 (Table 3): 2 nM

SMILES: COCC[C@H]([C@@H]1C[C@H]1C(=O)N[C@@H]1CC(C)(C)Oc2cc(C)c(Cl)cc21)N1C(=N)NC(C)(C)CC1=O [Example 137A]
- EC50 (72 h, Table 3): 12 nM

SMILES: COCC[C@H]([C@@H]1C[C@H]1C(=O)NC1CC(C)(COC)Oc2ccccc21)N1C(=N)NC(C)(C)CC1=O (single isomer, unassigned) [Example 82B]
- EC50 (Table 3): 57 nM

SMILES: COCC[C@H]([C@@H]1C[C@H]1C(=O)N[C@H]1CC(C)(C)Oc2ccc(C(F)(F)F)cc21)N1C(=N)NC(C)(C)CC1=O [Example 110B]
- EC50 (72 h, Table 3): 7.2 nM

SMILES: CCC1(CC)CC(=O)N([C@H](c2cccnc2)[C@H]2[C@H](C(=O)N[C@H]3CC(C)(C)Oc4ccccc43)C2(C)C)C(=N)N1 [Example 48A]
- EC50 (72 h, Table 3): 2.7 nM

SMILES: COCC1(C)CC(NC(=O)[C@@H]2C[C@H]2[C@@H](c2cccnc2)N2C(=N)NC(C)(C)CC2=O)c2ccccc2O1 (single isomer, unassigned) [Example 108C]
- EC50 (Table 3): 6 nM

SMILES: CCC1(CC)CC(=O)N(C[C@@H]2C(C)[C@H]2C(=O)N[C@@H]2c3ccccc3OCC2(C)O)C(=N)N1 (single isomer, unassigned) [Example 35B]
- EC50 (Table 3): 220 nM

SMILES: COCC[C@H]([C@@H]1C[C@H]1C(=O)N[C@H]1CC(C)(C)Oc2ccc(F)cc21)N1C(=N)NC(C)(C)CC1=O [Example 72B]
- EC50 (72 h, Table 3): 2.5 nM

SMILES: CCC1(CC)CC(=O)N([C@H](CCOC)[C@@H]2C[C@H]2C(=O)N[C@H]2c3ccccc3OCC2(C)C)C(=N)N1 [Example 19A]
- EC50 (72 h, Table 3): 28 nM

SMILES: COCC[C@H]([C@@H]1C[C@H]1C(=O)N[C@H]1CC(C)(C)Oc2c(C(F)(F)F)ccc(F)c21)N1C(=N)NC(C)(C)CC1=O [Example 114B]
- EC50 (72 h, Table 3): 5.1 nM

SMILES: CC1(C)CC(=O)N(C[C@@H]2C[C@H]2C(=O)N[C@H]2CC(C)(C)Oc3cccc(Cl)c32)C(=N)N1 [Example 119]
- EC50 (72 h, Table 3): 26 nM

SMILES: CCC1(CC)CC(NC(=O)[C@@H]2C[C@H]2[C@@H](CCOC)N2C(=N)NC(C)(C)CC2=O)c2ccccc2O1 (some centres unmarked) [Example 92B]
- EC50 (Table 3): 7.2 nM

SMILES: CC1(C)CC(=O)N([C@H](c2ccc(C#N)cc2)[C@@H]2C[C@H]2C(=O)N[C@H]2CC(C)(C)Oc3ccccc32)C(=N)N1 [Example 45A]
- EC50 (72 h, Table 3): 2.8 nM

SMILES: CCC1(CC)CC(=O)N(C(CC(C)OC)[C@@H]2C[C@H]2C(=O)N[C@H]2CC(C)(C)Oc3ccccc32)C(=N)N1 (single isomer, unassigned) [Example 142B]
- EC50 (Table 4 (unit inferred)): 0.7 nM

SMILES: CCC1(CC)CC(=O)N([C@@H](c2cccnc2)[C@H]2[C@H](C(=O)N[C@H]3C[C@H](C(F)(F)F)Oc4ccccc43)C2(C)C)C(=N)N1 [Example 44A]
- EC50 (72 h, Table 3): 8.3 nM

SMILES: COCC[C@H]([C@@H]1C[C@H]1C(=O)NC1CC2(CCC2)Oc2ccccc21)N1C(=N)NC(C)(C)CC1=O (some centres unmarked) [Example 131A]
- EC50 (72 h, Table 3): 6.8 nM

SMILES: CCC1(CC)CC(=O)N(C[C@@H]2C(C)[C@H]2C(=O)N[C@@H]2c3ccccc3C[C@H]2O)C(=N)N1 (some centres unmarked) [Example 33]
- EC50 (72 h, Table 3): 76 nM

SMILES: COCC[C@H]([C@@H]1C[C@H]1C(=O)NC1CC(C)(C(C)C)Oc2ccccc21)N1C(=N)NC(C)(C)CC1=O (single isomer, unassigned) [Example 80C]
- EC50 (Table 3): 14 nM

SMILES: CC1[C@@H](C(c2cccnc2)N2C(=N)NC(C)(C)CC2=O)[C@@H]1C(=O)N[C@H]1C[C@H](C(F)(F)F)Oc2ccccc21 (single isomer, unassigned) [Example 54A]
- EC50 (Table 3): 1 nM

SMILES: COCC[C@H]([C@@H]1C[C@H]1C(=O)NC1CC(C)(COC)Oc2ccccc21)N1C(=N)NC(C)(C)CC1=O (single isomer, unassigned) [Example 82C]
- EC50 (Table 3): 53 nM

SMILES: CC1(C)CC(=O)N([C@H](c2cccnc2)[C@@H]2C[C@H]2C(=O)NC2CC(C)(C)Oc3c(F)cccc32)C(=N)N1 (some centres unmarked) [Example 93A]
- EC50 (72 h, Table 3): 3.3 nM

SMILES: CCC1(CC)CC(=O)N(C(CC(C)OC)[C@@H]2C[C@H]2C(=O)N[C@@H]2CC(C)(C)Oc3ccccc32)C(=N)N1 (single isomer, unassigned) [Example 143A]
- EC50 (Table 4 (unit inferred)): 4.6 nM

SMILES: COCC[C@H]([C@@H]1C[C@H]1C(=O)N[C@H]1CC(C)(C)Oc2cc(OC)ccc21)N1C(=N)NC(C)(C)CC1=O [Example 70B]
- EC50 (72 h, Table 3): 19 nM

SMILES: CCC1(CC)CC(=O)N(C[C@@H]2C[C@H]2C(=O)N[C@H]2C[C@H](C(F)(F)F)Oc3ccccc32)C(=N)N1 [Example 8A]
- EC50 (72 h, Table 3): 37 nM

SMILES: CC[C@]1(C)CC(=O)N(C(c2cncc(F)c2)[C@@H]2C[C@H]2C(=O)NC2c3ccccc3OC(C(F)(F)F)C2O)C(=N)N1 (single isomer, unassigned) [Example 104A]
- EC50 (Table 3): 4 nM

Reference: patent US12338219B2, “Antimalarial agents” (Merck Sharp & Dohme LLC, priority 2019, dated 2025)
